Assay results taken from patent publication US9029325B2, “Amylin analogues and pharmaceutical compositions thereof” (Novo Nordisk A/S, priority 2011, dated 2015).
Starred links: 1 amine or outer side, 2 acyl side, 3 side chain; linkers in the order of their positions; H or OH if unused. Positions of bridges follow the written chain, without caps; N, C: chain ends. Residues, ends and D or L forms follow the SMILES beside them. *: point of attachment. C20 diacid = O=C(O)CCCCCCCCCCCCCCCCCCC(=O)*; γGlu = O=C(O)[C@H](CCC(=O)[*:2])N[*:1]

Assay: Assay (I) efficacy testing on appetite (food intake), ad libitum fed rat model
Assay type: in vivo, Sprague Dawley (SD) rats
Details: 3 nmol/kg
From the text: Sprague Dawley (SD) rats from Taconic Europe, Denmark are used for the experiments. The rats have a body weight 200-250 g at the start of experiment. The rats arrive at least 10-14 days before start of experiment to allow acclimatization to experimental settings. During this period the animals are handled at least 2 times. After arrival rats are housed individually for one week in a reversed light/dark phase (meaning that lights are off during daytime and on during nighttime) […]. Since rats are normally active and eat their major part of their daily food intake during the dark period, rats are dosed in the morning right before lights are turned off. This set-up results in the lowest data variation and highst test sensitivity. The experiment is conducted in the rats' home cages and rats have free access to food and water througout the acclimatization period and the experiment period. Each dose of derivative is tested in a group of 5-8 rats. A vehicle group of 6-8 rats is included in each set of testing. Rats are dosed once according to body weight with a 0.01-3 mg/kg solution administered intraperitoneally (ip), orally (po) or subcutaneously (sc). The time of dosing is recorded for each group. After dosing, the rats are returned to their home cages, where they then have access to food and water. The food consumption is recorded individually continuously by on-line registration or manually every hour for 7 hours, and then after 24 h and sometimes 48 h. At the end of the experimental session, the animals are euthanised.
The individual data are recorded in Microsoft excel sheets. Outliers are excluded after applying the Grubbs statistical evaluation test for outliers, and the result is presented graphically using the GraphPad Prism program.

Row | Structure (SMILES) | Food intake reduction 0-24 h 3 nmol/kg (%) | Food intake reduction 24-48 h 3 nmol/kg (%)
1 | CC[C@H](C)[C@H](NC(=O)[C@H](CCC(=O)O)NC(=O)CNC(=O)[C@H](Cc1ccccc1)NC(=O)[C@H](CC(N)=O)NC(=O)[C@H](CC(N)=O)NC(=O)[C@H](CO)NC(=O)[C@H](CO)NC(=O)[C@H](CCCNC(=N)N)NC(=O)[C@H](Cc1c[nH]cn1)NC(=O)[C@H](CC(C)C)NC(=O)[C@H](Cc1ccccc1)NC(=O)[C@H](CCC(=O)O)NC(=O)[C@H](C)NC(=O)[C@H](CC(C)C)NC(=O)[C@H](CCCNC(=N)N)NC(=O)[C@H](CCC(N)=O)NC(=O)[C@@H](NC(=O)[C@H](C)NC(=O)[C@@H]1CSSC[C@H](NC(=O)[C@H](Cc2c[nH]cn2)NC(=O)CC[C@H](NC(=O)CCCCCCCCCCCCCCCCCCC(=O)O)C(=O)O)C(=O)N[C@@H](CC(N)=O)C(=O)N[C@@H]([C@@H](C)O)C(=O)N[C@@H](C)C(=O)N[C@@H]([C@@H](C)O)C(=O)N1)[C@@H](C)O)C(=O)N[C@@H](CC(C)C)C(=O)N[C@@H](CO)C(=O)N[C@@H](CCCNC(=N)N)C(=O)N[C@H](C(=O)N[C@@H](CC(N)=O)C(=O)N[C@H](C(=O)NCC(=O)N[C@@H](CO)C(=O)N[C@@H](CC(N)=O)C(=O)N[C@H](C(=O)N[C@@H](Cc1ccc(O)cc1)C(N)=O)[C@@H](C)O)C(C)C)[C@@H](C)O [compound 7] ({C20 diacid-γGlu}-HCNTATCATQRLAEFLHRSSNNFGEILSRTNVGSNTY-NH2; disulfide 2-7 (inferred); C-terminus assumed) | 53% | 46%
2 | CC[C@H](C)[C@H](NC(=O)[C@@H]1CCCN1C(=O)CNC(=O)[C@H](Cc1ccccc1)NC(=O)[C@H](CO)NC(=O)[C@H](CO)NC(=O)[C@H](CO)NC(=O)[C@H](CO)NC(=O)[C@H](CCCNC(=N)N)NC(=O)[C@H](Cc1c[nH]cn1)NC(=O)[C@H](CC(C)C)NC(=O)[C@H](Cc1ccccc1)NC(=O)[C@H](CCC(=O)O)NC(=O)[C@H](C)NC(=O)[C@H](CC(C)C)NC(=O)[C@H](CCCNC(=N)N)NC(=O)[C@H](CCC(N)=O)NC(=O)[C@@H](NC(=O)[C@H](C)NC(=O)[C@@H]1CSSC[C@H](NC(=O)[C@H](Cc2c[nH]cn2)NC(=O)CC[C@H](NC(=O)CCCCCCCCCCCCCCCCCCC(=O)O)C(=O)O)C(=O)N[C@@H](CC(N)=O)C(=O)N[C@@H]([C@@H](C)O)C(=O)N[C@@H](C)C(=O)N[C@@H]([C@@H](C)O)C(=O)N1)[C@@H](C)O)C(=O)N[C@@H](CC(C)C)C(=O)N1CCC[C@H]1C(=O)N1CCC[C@H]1C(=O)N[C@H](C(=O)N[C@@H](CC(=O)O)C(=O)N[C@H](C(=O)NCC(=O)N[C@@H](CO)C(=O)N[C@@H](CC(=O)O)C(=O)N[C@H](C(=O)N[C@@H](Cc1ccc(O)cc1)C(N)=O)[C@@H](C)O)C(C)C)[C@@H](C)O [compound 9] ({C20 diacid-γGlu}-HCNTATCATQRLAEFLHRSSSSFGPILPPTDVGSDTY-NH2; disulfide 2-7 (inferred); C-terminus assumed) | 39% | 32%
